Results reported in US4342772A, “β-Lactam compounds, antibacterial compositions thereof and method of use” (priority 1979, dated 1982).
Several values for one entry are separate records, joined by “and”; a condition that tells them apart may be missing. Equal values may be shown once. Where a name gives a salt, the structure may show the parent alone. Read-outs that look alike come from different tables or passages of the source.

Legend:
[1] = tested on: β-lactamase producing bacteria; conditions: cited from earlier work
[2] = tested on: gram-positive and gram-negative organisms; conditions: cited from earlier work
β-lactamases = conditions: cited from earlier work
[3] = Absorption from the gastro-intestinal tract and in vivo hydrolysis; set-up: species or system animals and human volunteers; conditions: oral, in words
[4] = human, in vivo, po
Method: Serum concentrations and urinary excretion of ampicillin in fasting
following oral administration of
A. 125 mg of pivampicillin free base in tablets.
B. 170 mg of VD-1827^x hydrochloride (corresponding to 125 mg of
free base) in aqueous solution.
Serum concentrations (μg/ml) (% of dose)

[5] = Stability of crystalline form; format: physicochemical; conditions: crystalline free base; in words
[6] = cited from earlier work
[7] = in words, medium not stated; cited from earlier work
[8] = Urinary excretion in 0 to 6 hours of penicillanic acid 1,1-dioxide in fasting volunteers following oral administration (Table II); conditions: oral 73 mg potassium penicillanate 1,1-dioxide, aqueous solution, individual subjects in order GK, MK, FJ, MM, LA, 360 min

| Compound | Synergy against β-lactamase producing bacteria [1] | Antibacterial activity against most gram-positive and gram-negative organisms [2] | Inhibition of a wide range of β-lactamases (β-lactamases) | further results |
| --- | --- | --- | --- | --- |
| CC1(C)[C@H](C(=O)O)N2C(=O)[C@H](Cl)[C@H]2S1(=O)=O [6α-chloropenicillanic acid 1,1-dioxide] | act synergistically | only weak antibacterial activity | powerful inhibitors |  |
| CC1(C)S[C@@H]2[C@H](NC(=O)[C@H](N)c3ccccc3)C(=O)N2[C@H]1C(=O)OCOC(=O)[C@@H]1N2C(=O)C[C@H]2S(=O)(=O)C1(C)C [VD-1827 hydrochloride, 1,1-Dioxopenicillanoyloxymethyl 6-(D-α-amino-α-phenylacetamido)penicillanate hydrochloride] |  |  |  | Absorption from the gastro-intestinal tract ([3]; HCl, hydrochloride): efficient oral absorption; Urinary recovery of ampicillin compared with pivampicillin [4]: comparable to that following administration of pivampicillin |
| CC1(C)S[C@@H]2[C@H](NC(=O)[C@H](N)c3ccccc3)C(=O)N2[C@H]1C(=O)OCOC(=O)[C@@H]1N2C(=O)C[C@H]2S(=O)(=O)C1(C)C [VD-1827, free base, 1,1-Dioxopenicillanoyloxymethyl 6-(D-α-amino-α-phenylacetamido)penicillanate] |  |  |  | Absorption from the gastro-intestinal tract ([3]; listed as free base VD 1827): readily absorbable; Stability [5]: stable |
| CC1(C)S[C@@H]2C(NC(=O)[C@H](N)c3ccccc3)C(=O)N2[C@H]1C(=O)O (stereo partly drawn) [ampicillin, 6-(D-α-amino-α-phenylacetamido)penicillanic acid] |  |  |  | Absorption from the gastro-intestinal tract (general statement) ([6]; oral, in words, no data shown): incompletely absorbed |
| CC1(C)S[C@@H]2[C@H](NC(=O)C(C(=O)O)c3ccccc3)C(=O)N2[C@H]1C(=O)O (some centres unmarked) [carbenicillin] |  |  |  | Absorption from the gastro-intestinal tract (general statement) ([6]; in vivo, po): incompletely absorbed |
| COc1cccc(OC)c1C(=O)N[C@@H]1C(=O)N2[C@@H](C(=O)O)C(C)(C)S(=O)(=O)[C@H]12 [methicillin sulphone, 1,1-dioxo-6β-(2,6-dimethoxybenzamido)penicillanic acid] | act synergistically | only weak antibacterial activity | powerful inhibitors |  |
| CC1(C)[C@H](C(=O)O)N2C(=O)C[C@H]2S1(=O)=O [penicillanic acid 1,1-dioxide] | act synergistically | only weak antibacterial activity | powerful inhibitors | Absorption from the gastro-intestinal tract [3]: absorbed poorly or irregularly |
| CC(C)(C)C(=O)OCOC(=O)[C@@H]1N2C(=O)C[C@H]2S(=O)(=O)C1(C)C [pivaloyloxymethyl ester of the β-lactamase inhibitor penicillanic acid 1,1-dioxide] |  |  |  | Solubility (general statement) [7]: sparingly soluble; Absorption from the gastro-intestinal tract (general statement) ([6]; oral, in words, no data shown): absorbed much more slowly |
| CC(C)(C)C(=O)OCOC(=O)[C@@H]1N2C(=O)[C@@H](NC(=O)[C@H](N)c3ccccc3)[C@H]2SC1(C)C [pivampicillin] |  |  |  | Absorption from the gastro-intestinal tract (general statement) ([6]; oral, in words, no data shown): absorbed very rapidly |
| CC1(C)[C@H](C(=O)[O-])N2C(=O)C[C@H]2S1(=O)=O.[K+] [potassium penicillanate 1,1-dioxide] |  |  |  | Urinary excretion of penicillanic acid 1,1-dioxide [8]: 2.5 % of dose and 4.0 % of dose and 9.5 % of dose and 5.5 % of dose and 4.5 % of dose |
| CC1(C)[C@H](C(=O)O)N2C(=O)[C@@H](NC(=O)c3nc4ccccc4nc3C(=O)O)[C@H]2S1(=O)=O [quinacillin sulphone] | act synergistically | only weak antibacterial activity | powerful inhibitors |  |
